# Results from patent publication EP1203770A1 (priority 1992, dated 1994).
# pIC50, pKi: −log10 of the molar value. Where a name gives a salt, the structure may show the parent alone. Read-outs that look alike come from different tables or passages of the source.
# Molecular target: T1, HIV-1 protease (Human immunodeficiency virus type 1 group M subtype B, UniProt P04585)
# T1 construct: The protease (or proteinase), consisting of only 99 amino acids, is among the smallest enzymes known
# Test: In vitro HIV protease inhibitory assay (HIV Protease FITC Assay)
# Assay type: biochemical
# Conditions: for inhibition at 1 µM / inhibition at 10 µM / inhibition at 100 µM: read-out: HIV-1 Protease % Inhib
# Method: The HIV protease screening assay is based on a fluorescently labeled substrate which can be resolved from nonlabeled cleavage product using avidin-polystyrene particles, 0.7-0.9 µm. The substrate is biotinylated at the amino terminal arginine and fluorescently labeled with fluorescein isothiocynate (FITC) at the carboxyl terminal lysine. […] Substrate (20 µl of 0.2 µM), sample (10 µl of desired concentraion), and enzyme (10 µl of 0.1 µM) are added to a 96 well pandex plate. The assay is run in 0.1 M sodium acetate buffer at pH 5.5 in the presence of 1.0 M sodium chloride and 0.05% NP-40 and incubated in the dark for one hour at room temperature. Avidin coated polystyrene beads {40 µl of 0.1% (w/v)} are added and the incubation is continued in the dark for an additional half hour. The labeled cleavage product is separated from the unreacted substrate via filtration and is read on the Idexx Screen Machine. The data are analyzed by appropriate computer algorithms to ascertain percent inhibition values.
molecule,measurement,setting,value
3-(.alpha.-ethylbenzyl)-4-hydroxy-6-(3-butenyl)-2H-Pyran-2-one [Example 10],pIC50,,5.54
same,HIV-1 Protease % Inhib,HIV-1 Dose 1.000 uM,14.18%
same,HIV-1 Protease % Inhib,HIV-1 Dose 10.000 uM,82.75%
same,HIV-1 Protease % Inhib,HIV-1 Dose 100.000 uM,104.37%
3-(.alpha.-ethylbenzyl)-4-hydroxy-6-propyl-2H-Pyran-2-one [Example 9],pIC50,,4.72
same,HIV-1 Protease % Inhib,HIV-1 Dose 1.000 uM,16.27%
same,HIV-1 Protease % Inhib,HIV-1 Dose 10.000 uM,73.49%
same,HIV-1 Protease % Inhib,HIV-1 Dose 100.000 uM,98.35%
3-(α-Cyclopropyl-meta-(tert-butyloxycarbonylamino)benzyl)-6-(α-cyclopropylmethyl-cyclopropylethyl)-4-hydroxy-2H-pyran-2-one [Example 38],HIV-1 Protease % Inhib,HIV-1 Dose 0.123 uM,<10%
same,HIV-1 Protease % Inhib,HIV-1 Dose 0.370 uM,<10%
same,HIV-1 Protease % Inhib,HIV-1 Dose 1.100 uM,<10%
same,HIV-1 Protease % Inhib,HIV-1 Dose 3.300 uM,26.72%
same,HIV-1 Protease % Inhib,HIV-1 Dose 10.000 uM,58.44%
same,HIV-1 Protease % Inhib,HIV-1 Dose 30.000 uM,69.94%
"CCC(c1ccccc1)c1c(O)cc(-c2ccccc2)oc1=O (stereo not drawn) [Example 1, 3-(α-ethylbenzyl)-4-hydroxy-6-phenyl-2H-Pyran-2-one]",inhibition at 1 µM,HIV-1 Dose 1.000 uM,< 10%
same,inhibition at 10 µM,HIV-1 Dose 10.000 uM,45.5%
same,inhibition at 100 µM,HIV-1 Dose 100.000 uM,80%
"CCC(c1ccccc1)c1c(O)cc(Cc2ccccc2)oc1=O (stereo not drawn) [Example 2, 6-benzyl-3-(α-ethylbenzyl)-4-hydroxy-2H-Pyran-2-one]",inhibition at 1 µM,HIV-1 Dose 1.000 uM,< 10%
same,inhibition at 10 µM,HIV-1 Dose 10.000 uM,38.7%
same,inhibition at 100 µM,HIV-1 Dose 100.000 uM,74.3%
"CCCC(c1ccc(Br)cc1)c1c(O)cc(CCc2ccccc2)oc1=O (stereo not drawn) [Example 4, 4-hydroxy-6-phenethyl-3-(α-propyl-p-bromobenzyl)-2H-Pyran-2-one]",inhibition at 1 µM,HIV-1 Dose 1.000 uM,< 10%
same,inhibition at 10 µM,HIV-1 Dose 10.000 uM,15.8%
same,inhibition at 100 µM,HIV-1 Dose 100.000 uM,51.2%
"CCC(c1ccccc1)c1c(O)cc(CCc2ccc(Br)cc2)oc1=O (stereo not drawn) [Example 6, 6-(p-bromophenethyl)-3-(α-ethylbenzyl)-4-hydroxy-2H-Pyran-2-one]",inhibition at 1 µM,HIV-1 Dose 1.000 uM,15.6%
same,inhibition at 10 µM,HIV-1 Dose 10.000 uM,39.6%
same,inhibition at 100 µM,HIV-1 Dose 100.000 uM,69.7%
"CCC(c1ccccc1)c1c(O)cc(CCc2ccccc2F)oc1=O (stereo not drawn) [Example 7, 3-(α-ethylbenzyl)-6-(o-fluorophenethyl)-4-hydroxy-2H-Pyran-2-one]",pIC50,,5.19
same,inhibition at 1 µM,HIV-1 Dose 1.000 uM,14%
same,inhibition at 10 µM,HIV-1 Dose 10.000 uM,74.1%
same,HIV-1 Protease % Inhib,HIV-1 Dose 100.000 uM,109%
same,inhibition at 100 µM,HIV-1 Dose 100.000 uM,109%
"CCC(c1ccccc1)c1c(O)cc(CCCc2ccccc2)oc1=O (stereo not drawn) [Example 8, 3-(α-ethylbenzyl)-4-hydroxy-6-(3-phenylpropyl)-2H-Pyran-2-one]",pIC50,,5.41
same,inhibition at 1 µM,HIV-1 Dose 1.000 uM,15.8%
same,inhibition at 10 µM,HIV-1 Dose 10.000 uM,79%
same,HIV-1 Protease % Inhib,HIV-1 Dose 100.000 uM,97%
same,inhibition at 100 µM,HIV-1 Dose 100.000 uM,96.6%
"CCC(c1ccccc1)c1c(O)cc(CC(=O)Nc2ccccc2)oc1=O (stereo not drawn) [Example 11, 3-(α-ethylbenzyl)-4-hydroxy-6-[[(phenylamino)carbonyl]methyl]-2H-Pyran-2-one]",inhibition at 1 µM,HIV-1 Dose 1.000 uM,10.8%
same,inhibition at 10 µM,HIV-1 Dose 10.000 uM,35.6%
same,inhibition at 100 µM,HIV-1 Dose 100.000 uM,79.8%
"C=CC(c1ccccc1)c1c(O)cc(CCc2ccccc2)oc1=O (stereo not drawn) [Example 12, 4-hydroxy-6-phenethyl-3-(α-vinylbenzyl)-2H-Pyran-2-one]",pIC50,,5.27
same,inhibition at 1 µM,HIV-1 Dose 1.000 uM,17.5%
same,inhibition at 10 µM,HIV-1 Dose 10.000 uM,67.4%
same,HIV-1 Protease % Inhib,HIV-1 Dose 100.000 uM,107%
same,inhibition at 100 µM,HIV-1 Dose 100.000 uM,107%
"CCC(CC)c1cc(O)c(C(CC)c2ccccc2)c(=O)o1 (stereo not shown) [Example 14, 6-(1'-Ethyl-propyl)-4-hydroxy-3-(1'-phenyl-propyl)-2-pyrone]",pIC50,,5.66
same,inhibition at 1 µM,HIV-1 Dose 1.000 uM,40.2%
same,inhibition at 10 µM,HIV-1 Dose 10.000 uM,90.2%
same,inhibition at 100 µM,HIV-1 Dose 100.000 uM,105%
"CCC(c1ccccc1)c1c(O)cc(C=Cc2ccc(OC)cc2)oc1=O (stereo not drawn) [Example 15, 3-(α-ethylbenzyl)-4-hydroxy-6-(p-methoxystyryl)-2H-Pyran-2-one]",pIC50,,5.01
same,inhibition at 1 µM,HIV-1 Dose 1.000 uM,21.5%
same,inhibition at 10 µM,HIV-1 Dose 10.000 uM,84%
same,inhibition at 100 µM,HIV-1 Dose 100.000 uM,102%
"CCC(c1ccccc1)c1c(O)cc(CCc2ccc3ccccc3c2)oc1=O (stereo not drawn) [Example 16, 3-(α-ethylbenzyl)-4-hydroxy-6-(2-naphth-2-ylethyl)-2H-Pyran-2-one]",inhibition at 1 µM,HIV-1 Dose 1.000 uM,< 10%
same,inhibition at 10 µM,HIV-1 Dose 10.000 uM,< 10%
same,inhibition at 100 µM,HIV-1 Dose 100.000 uM,49.9%
"CCC(Cc1ccc2ccccc2c1)c1cc(O)c(C(CC)c2ccccc2)c(=O)o1 (stereo not drawn) [Example 17, 3-(α-ethylbenzyl)-4-hydroxy-6-(1-ethyl-2-naphth-2-ylethyl)-2H-Pyran-2-one]",inhibition at 1 µM,HIV-1 Dose 1.000 uM,< 10%
same,inhibition at 10 µM,HIV-1 Dose 10.000 uM,49.5%
same,inhibition at 100 µM,HIV-1 Dose 100.000 uM,73.6%
"CCC(c1ccccc1)c1c(O)cc(CCc2cccc3ccccc23)oc1=O (stereo not drawn) [Example 18, 3-(α-ethylbenzyl)-4-hydroxy-6-(2-naphth-1-ylethyl)-2H-Pyran-2-one]",inhibition at 1 µM,HIV-1 Dose 1.000 uM,< 10%
same,inhibition at 10 µM,HIV-1 Dose 10.000 uM,42.1%
same,inhibition at 100 µM,HIV-1 Dose 100.000 uM,86.8%
"CCC(Cc1cccc2ccccc12)c1cc(O)c(C(CC)c2ccccc2)c(=O)o1 (stereo not drawn) [Example 19, 3-(α-ethylbenzyl)-4-hydroxy-6-(1-ethyl-2-naphth-1-ylethyl)-2H-Pyran-2-one]",inhibition at 1 µM,HIV-1 Dose 1.000 uM,11%
same,inhibition at 10 µM,HIV-1 Dose 10.000 uM,79.3%
same,inhibition at 100 µM,HIV-1 Dose 100.000 uM,84.3%
"Cc1cc(O)c(C(c2ccccc2)C2CC2)c(=O)o1 (stereo not drawn) [Example 20, 3-(α-cyclopropylbenzyl)-4-hydroxy-6-methyl-2H-Pyran-2-one]",inhibition at 1 µM,HIV-1 Dose 1.000 uM,< 10%
same,inhibition at 10 µM,HIV-1 Dose 10.000 uM,< 10%
same,inhibition at 100 µM,HIV-1 Dose 100.000 uM,60.6%
"O=c1oc(CCCc2ccccc2)cc(O)c1C(c1ccccc1)C1CC1 (stereo not drawn) [Example 21, 3-(α-cyclopropylbenzyl)-4-hydroxy-6-(3-phenylpropyl)-2H-Pyran-2-one]",pIC50,,5.02
same,inhibition at 1 µM,HIV-1 Dose 1.000 uM,17.6%
same,inhibition at 10 µM,HIV-1 Dose 10.000 uM,83.7%
same,inhibition at 100 µM,HIV-1 Dose 100.000 uM,110%
"CCC(CC)c1cc(O)c(C(c2ccccc2)C2CC2)c(=O)o1 (stereo not drawn) [Example 22, 3-(α-cyclopropylbenzyl)-6-(1-ethylpropyl)-4-hydroxy-2H-Pyran-2-one]",pIC50,,5.74
same,inhibition at 1 µM,HIV-1 Dose 1.000 uM,33.8%
same,inhibition at 10 µM,HIV-1 Dose 10.000 uM,98.3%
same,inhibition at 100 µM,HIV-1 Dose 100.000 uM,108%
"O=c1oc(C(Cc2ccccc2)Cc2ccccc2)cc(O)c1C(c1ccccc1)C1CC1 (stereo not drawn) [Example 23, 3-(α-cyclopropylbenzyl)-6-(α-benzylphenethyl)-4-hydroxy-2H-Pyran-2-one]",pIC50,,5.52
same,inhibition at 1 µM,HIV-1 Dose 1.000 uM,< 10%
same,inhibition at 10 µM,HIV-1 Dose 10.000 uM,77.9%
same,inhibition at 100 µM,HIV-1 Dose 100.000 uM,87%
"O=c1oc(CCc2ccccc2)cc(O)c1C(c1ccccc1)C1CC1 (stereo not drawn) [Example 24, 3-(α-cyclopropylbenzyl)-4-hydroxy-6-phenethyl-2H-Pyran-2-one]",pIC50,,5.20
same,inhibition at 1 µM,HIV-1 Dose 1.000 uM,< 10%
same,inhibition at 10 µM,HIV-1 Dose 10.000 uM,61.3%
same,inhibition at 100 µM,HIV-1 Dose 100.000 uM,105%
"CCCC(CCC)c1cc(O)c(C(c2ccccc2)C2CC2)c(=O)o1 (stereo not drawn) [Example 25, 3-(α-cyclopropylbenzyl)-6-(1-propylbutyl)-4-hydroxy-2H-Pyran-2-one]",pKi,read-out: HIV-1 FITC Ki,7.39
"CCC(c1ccccc1)C1C(=O)CC(CC)(c2ccccc2)OC1=O (stereo not drawn) [Example 26, 6-Ethyl-3-(α-ethylbenzyl)-6-phenyl-tetrahydropyran-2,4-dione]",pKi,,6.79
same,inhibition at 1 µM,,38.7%
same,inhibition at 10 µM,,78.8%
same,inhibition at 100 µM,,86.3%
"CCC1(CC)CC(=O)C(CCCc2ccccc2)C(=O)O1 (stereo not shown) [Example 27, 6,6-Diethyl-3-(3-phenylpropyl)-tetrahydropyran-2,4-dione]",inhibition at 1 µM,HIV-1 Dose 1.000 uM,14.7%
same,inhibition at 10 µM,HIV-1 Dose 10.000 uM,41.4%
same,inhibition at 100 µM,HIV-1 Dose 100.000 uM,90.5%
"CCCC1(c2ccccc2)CC(O)=C(C(CC)c2cccc(O)c2)C(=O)O1 (stereo not shown) [Example 30, 5,6-Dihydro-4-hydroxy-6-phenyl-6-propyl-3-[1-(3-hydroxyphenyl)-propyl]-2H-pyran-2-one]",inhibition at 1 µM,HIV-1 Dose 1.000 uM,46.4%
same,inhibition at 10 µM,HIV-1 Dose 10.000 uM,86%
same,inhibition at 100 µM,HIV-1 Dose 100.000 uM,75.7%
"CCC(C1=C(O)CC(c2ccccc2)(C2CCCCC2)OC1=O)c1cccc(O)c1 (stereo not shown) [Example 31, 5,6-Dihydro-4-hydroxy-6-cyclohexyl-6-phenyl-3-[1-(3-hydroxyphenyl)propyl]-2H-pyran-2-one]",pKi,,6.21
same,inhibition at 1 µM,,18.7%
same,inhibition at 10 µM,,81%
same,inhibition at 100 µM,,86%
"CCCC1(c2ccccc2)CC(O)=C(C(CC)c2ccccc2)C(=O)O1 (stereo not shown) [Example 32, 5,6-Dihydro-4-hydroxy-6-phenyl-6-propyl-3-(1-phenylpropyl)-2H-pyran-2-one]",pKi,,6.60
same,inhibition at 1 µM,,56.1%
same,inhibition at 10 µM,,106%
same,inhibition at 100 µM,,93.1%
"CCC(C1=C(O)CC2(CCCCC2)OC1=O)c1ccccc1 (stereo not shown) [Example 33, 4-Hydroxy-1-oxa-3-(1-phenylpropyl)spiro-[5,5]-undec-3-en-2-one, sodium salt]",inhibition at 1 µM,,10.2%
same,inhibition at 10 µM,,68.5%
same,inhibition at 100 µM,,80.7%
"C=CC(c1ccccc1)C1C(=O)CC(C)(c2ccccc2)OC1=O (stereo not shown) [Example 34, Dihydro-6-methyl-6-phenyl-3-(1-phenyl-2-propenyl)-2H-Pyran-2,4(3H)-dione]",inhibition at 1 µM,HIV-1 Dose 1.000 uM,< 10%
same,inhibition at 10 µM,HIV-1 Dose 10.000 uM,56.5%
same,inhibition at 100 µM,HIV-1 Dose 100.000 uM,67.9%
same,pKi,read-out: HIV-1 FITC Ki,6.20
"CCCC1(c2ccccc2)CC(=O)C(C(CC)c2cccc(O)c2)C(=O)O1 (stereo not shown) [Example 35, Dihydro-3-(1-(3-hydroxyphenyl)propyl]-6-phenyl-6-propyl-2H-pyran-2,4(3H)-dione]",inhibition at 1 µM,HIV-1 Dose 1.000 uM,23.8%
same,inhibition at 10 µM,HIV-1 Dose 10.000 uM,79.8%
same,inhibition at 100 µM,HIV-1 Dose 100.000 uM,73.6%
